The text below walks through data of US6270957A, “Non-Imuunosuppressive cyclosporins and their use in the prevention and treatment of HIV infection” (Wisconsin Alumni Research Foundation, priority 1999, dated 2001).

The target of one data set is cyclophilin (Homo sapiens, UniProt P62937). The data set is described as follows: Inhibition of cyclophilin. It counts as biochemical. The note with it: read-out: Ki against cyclophilin.
The target of the next data set is T1, HIV protease (Human immunodeficiency virus type 1 group M subtype B, UniProt P04585).
T1 construct: HIV protease is an aspartic protease that cleaves the immature viral protein gag-pol into mature structural proteins and enzymes
The data set is described as follows: Inhibition of HIV protease. The class given is biochemical. The note with it: read-out: Ki against HIV protease.

For the next data set, the system named is HIV-1. As to conditions: CEM cells, HIV-1, 6 days, XTT; quadruplicate runs.
For data set [1] the following is noted: compared with DMP-323; cited from earlier work.
A further data set deals with HIV. As to conditions: read-out: anti-HIV potency IC90; cited from earlier work.

By pKi is commonly meant the negative decadic logarithm of the Ki, by convention in mol/L. The IC90 is the point of the concentration-response curve where the effect stands at 90%.

pKi: −log10 of the molar value. Square brackets hold non-standard residues; d marks the D form. Side chains are listed from the residue outwards. Peptide text beside a SMILES is read from it. * marks the point of attachment. X2 = CC(C)CN(C[C@@H](O)[C@H](Cc1ccc(OCC(=O)*)cc1)NC(=O)O[C@H]1CCOC1)S(=O)(=O)c1ccc(N)cc1; X1 = NC(=O)C[C@H](NC(=O)OCc1ccccc1)C(=O)N[C@@H](Cc1ccccc1)[C@@H](O)CN1CCC[C@H]1C(=O)*; X3 = CC(C)(C)c1cc(OCC(=O)*)ccc1Sc1c(O)cc(-c2ccccc2)oc1=O; NMeLeu(3R-OH) = CN[C@H](C(=O)O)[C@H](O)C(C)C; NMeL = CN[C@@H](CC(C)C)C(=O)O; NMeV = CN[C@H](C(=O)O)C(C)C; dNMeS = CN[C@H](CO)C(=O)O; Abu = CC[C@H](N)C(=O)O

cyclophilin, sequence (P62937 whole entry): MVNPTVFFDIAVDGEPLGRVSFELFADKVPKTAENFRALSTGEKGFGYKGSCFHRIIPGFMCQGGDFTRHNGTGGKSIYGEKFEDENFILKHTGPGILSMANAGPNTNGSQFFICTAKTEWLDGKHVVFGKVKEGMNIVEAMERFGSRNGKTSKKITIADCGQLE
Protocol for HIV-1: The procedure used in the National Cancer Institute's test for agents active against human immunodeficiency virus (HIV) is designed to detect agents acting at any stage of the virus reproductive cycle. The assay basically involves the killing of T4 lymphocytes by HIV. Small amounts of HIV are added to cells, and two cycles of virus reproduction are necessary to obtain the required cell killing. Agents that interact with virions, cells, or virus gene-products to interfere with viral activities will protect cells from cytolysis. The system is automated in several features to accommodate large numbers of candidate agents and is generally designed to detect anti-HIV activity. However, compounds that degenerate or are rapidly metabolized in the culture conditions may not show activity in this screen. All tests are compared with at least one positive (e.g., AZT-treated) control done at the same time under identical conditions.
Candidate agent is dissolved in dimethyl sulfoxide (unless otherwise instructed) then diluted 1:100 in cell culture medium before preparing serial half-log10 dilutions. […]
Individual wells are analyzed spectrophotometrically to quantitate formazan production, and in addition are viewed microscopically for detection of viable cells and confirmation of protective activity. […]

In the case of `CC[C@@H]1NC(=O)[C@H]([C@H](O)C(C)C)N(C)C(=O)[C@H](C(C)C)N(C)C(=O)[C@H](CC(C)C)N(C)C(=O)[C@H](CC(C)C)N(C)C(=O)[C@@H](C)NC(=O)[C@H](CCCCNC(=O)[C@H](Cc2ccccc2)NC(=O)[C@@H](NC(=O)[C@@H]2CCCN2C[C@H](O)[C@H](Cc2ccccc2)NC(=O)[C@H](CC(N)=O)NC(=O)OCc2ccccc2)[C@@H](C)CC)NC(=O)[C@H](CC(C)C)N(C)C(=O)[C@H](C(C)C)NC(=O)[C@H](CC(C)C)N(C)C(=O)[C@@H](CO)N(C)C1=O` [Compound 2.8] (cyclo([Abu][dNMeS][NMeL]V[NMeL]K([Phe-Ile-X1])[dA][NMeL][NMeL][NMeV][NMeLeu(3R-OH)])), the negative-log Ki (pKi) on cyclophilin was 7.70; at HIV protease, 9.00.

Take `CC[C@@H]1NC(=O)[C@H]([C@H](O)C(C)C)N(C)C(=O)[C@H](C(C)C)N(C)C(=O)[C@H](CC(C)C)N(C)C(=O)[C@H](CC(C)C)N(C)C(=O)[C@@H](C)NC(=O)[C@H](CCCCNC(=O)COc2ccc(Sc3c(O)cc(-c4ccccc4)oc3=O)c(C(C)(C)C)c2)NC(=O)[C@H](CC(C)C)N(C)C(=O)[C@H](C(C)C)NC(=O)[C@H](CC(C)C)N(C)C(=O)[C@@H](CO)N(C)C1=O` [Compound 2.9] (cyclo([Abu][dNMeS][NMeL]V[NMeL]K(X3)[dA][NMeL][NMeL][NMeV][NMeLeu(3R-OH)])): the negative logarithm of the Ki (pKi) at cyclophilin is 8.03; at HIV protease it was 8.47.

As for `CC[C@@H]1NC(=O)[C@H]([C@H](O)C(C)C)N(C)C(=O)[C@H](C(C)C)N(C)C(=O)[C@H](CC(C)C)N(C)C(=O)[C@H](CC(C)C)N(C)C(=O)[C@@H](C)NC(=O)[C@H](CCCCNC(=O)COc2ccc(C[C@H](NC(=O)O[C@H]3CCOC3)[C@H](O)CN(CC(C)C)S(=O)(=O)c3ccc(N)cc3)cc2)NC(=O)[C@H](CC(C)C)N(C)C(=O)[C@H](C(C)C)NC(=O)[C@H](CC(C)C)N(C)C(=O)[C@@H](CO)N(C)C1=O` [Compound 2.10] (cyclo([NMeLeu(3R-OH)][Abu][dNMeS][NMeL]V[NMeL]K(X2)[dA][NMeL][NMeL][NMeV])), the negative logarithm of the Ki (pKi) was 8.22 at cyclophilin and 8.64 on HIV protease. For the same molecule, the “NCI determination of anti-HIV activity” value with HIV-1 is listed as “confirmed active”.

For `Nc1cccc(CN2C(=O)N(Cc3cccc(N)c3)[C@H](Cc3ccccc3)[C@H](O)[C@@H](O)[C@H]2Cc2ccccc2)c1` [DMP-450], in data set [1], the plasma concentrations result is on record as “much higher plasma concentrations”.

As for `O=C(Nc1nc2ccccc2[nH]1)c1cccc(CN2C(=O)N(Cc3cccc(C(=O)Nc4nc5ccccc5[nH]4)c3)[C@H](Cc3ccccc3)[C@H](O)[C@@H](O)[C@H]2Cc2ccccc2)c1` [SD-146], the 90% effect concentration (IC90) in the data set with HIV was 5.1 nM.
